From the NIST ThermoML archive (doi:10.1016/j.fluid.2014.05.043)
Numbers after ± are expanded uncertainties.

Experiment: mn = molality of the nth substance listed, in mol/kg
Settings: 101 kPa, Liquid; for molar conductivity: 293 K, Direct current cell with electrodes; for mass density: Vibrating tube method

CCCCCCCCCCCCCCCCCC(=O)O.NCCO [2-hydroxyethylammonium stearate] + O
Settings	molar conductivity [S·m2/mol]
m1 = 2.77e-05	0.0501 ± 0.0038
m1 = 2.83e-05	0.0488 ± 0.0038
m1 = 2.89e-05	0.0477 ± 0.0036
m1 = 2.96e-05	0.0464 ± 0.0035
m1 = 3.03e-05	0.0452 ± 0.0035
m1 = 3.1e-05	0.044 ± 0.0033
m1 = 3.18e-05	0.0428 ± 0.0033
m1 = 3.26e-05	0.0415 ± 0.0033
m1 = 3.34e-05	0.0403 ± 0.003
m1 = 3.43e-05	0.0392 ± 0.0027
m1 = 3.52e-05	0.0383 ± 0.0028
m1 = 3.61e-05	0.0371 ± 0.0027
m1 = 3.71e-05	0.0362 ± 0.0028
m1 = 3.82e-05	0.0347 ± 0.0028
m1 = 3.93e-05	0.0336 ± 0.0027
m1 = 4.05e-05	0.0323 ± 0.0027
m1 = 4.17e-05	0.0311 ± 0.0026
m1 = 4.31e-05	0.0297 ± 0.0026
m1 = 4.45e-05	0.0283 ± 0.0025
m1 = 4.6e-05	0.0271 ± 0.0024
m1 = 4.76e-05	0.0256 ± 0.0024
m1 = 4.94e-05	0.0241 ± 0.0023
m1 = 5.13e-05	0.0227 ± 0.0021
m1 = 5.33e-05	0.0214 ± 0.0018
m1 = 5.56e-05	0.0204 ± 0.0016
m1 = 5.81e-05	0.0194 ± 0.0015
m1 = 6.09e-05	0.0183 ± 0.0015
m1 = 6.38e-05	0.0172 ± 0.0013
m1 = 6.7e-05	0.0163 ± 0.0013
m1 = 7.07e-05	0.0153 ± 0.0012
m1 = 7.45e-05	0.0143 ± 0.0012

mass density [kg/m3]
Settings	m1 = 5.8e-06	m1 = 1.15e-05	m1 = 1.73e-05	m1 = 2.31e-05	m1 = 2.89e-05
298.15 K	996 ± 0.83	994.86 ± 0.83	997.03 ± 0.85	996.95 ± 0.83	997.02 ± 0.83
303.15 K	994.49 ± 0.83	995.63 ± 0.83	995.65 ± 0.83	995.35 ± 0.83	995.6 ± 0.83
308.15 K	990.78 ± 0.83	994.03 ± 0.85	993.99 ± 0.83	993.62 ± 0.83	993.99 ± 0.84

O [water] + CCCCCCCCCCCCCCCCCC(=O)O.NCCO
m2 = 0
Settings	mass density [kg/m3]
298.15 K	996.06 ± 10
303.15 K	994.67 ± 16
308.15 K	993.01 ± 380
